Here are results for eleven compounds from ChEMBL document CHEMBL3045400, “Synthesis of novel triazole derivatives as potent inhibitor of allene oxide synthase (CYP74A), a key enzyme in jasmonic acid biosynthesis” (J Pestic Sci, 2012).

The structures appear in SMILES notation.

For this test, the target named is T1, Allene oxide synthase, chloroplastic (Arabidopsis thaliana, UniProt Q96242).
T1 sequence (Q96242 whole entry): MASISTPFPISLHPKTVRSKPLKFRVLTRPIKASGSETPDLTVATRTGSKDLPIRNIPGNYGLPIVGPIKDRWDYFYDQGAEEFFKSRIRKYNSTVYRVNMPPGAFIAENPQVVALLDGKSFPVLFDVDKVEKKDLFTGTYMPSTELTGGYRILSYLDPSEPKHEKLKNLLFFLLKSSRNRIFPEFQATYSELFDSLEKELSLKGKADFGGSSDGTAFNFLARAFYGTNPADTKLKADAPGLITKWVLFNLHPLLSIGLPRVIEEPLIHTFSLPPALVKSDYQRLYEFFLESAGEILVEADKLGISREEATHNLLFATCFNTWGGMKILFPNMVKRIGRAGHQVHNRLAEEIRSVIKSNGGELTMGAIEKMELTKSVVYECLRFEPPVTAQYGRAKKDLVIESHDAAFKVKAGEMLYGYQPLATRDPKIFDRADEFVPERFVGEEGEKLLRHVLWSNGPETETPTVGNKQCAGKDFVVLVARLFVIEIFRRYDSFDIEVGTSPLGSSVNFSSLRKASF
Description: Inhibition of recombinant Arabidopsis thaliana allene oxide synthase activity by spectrophotometry.
As to `COC(=O)CCCCCCCOC(Cn1cncn1)c1ccc(Cl)cc1` (stereo unspecified), the IC50 was 1200 nM.

In the case of `COC(=O)CCCCCCCOC(Cn1cncn1)c1ccccc1` (stereo unspecified), the IC50 worked out at 1600 nM.

As to `COC(=O)CCCCCCCOC(Cn1ccnc1)c1ccc(Cl)cc1Cl` (stereo unspecified), the concentration for half-maximal inhibition (IC50) is 850 nM.

On to `COC(=O)CCCCCCCOC(Cn1cncn1)c1ccc(Cl)cc1Cl` (stereo unspecified), for which the IC50 was found to be 840 nM.

Regarding `COC(=O)CCCCCCCOC(Cn1cncn1)c1cccc(OC)c1` (stereo unspecified), the IC50 came out at 22500 nM.

As for `COC(=O)CCCCCCCOC(Cn1cncn1)c1ccc2ccccc2c1` (stereo unspecified), the half-inhibitory concentration (IC50) was 750 nM.

Take `COC(=O)CCCCCCCOC(Cn1cncn1)c1ccc(F)cc1` (stereo unspecified): the concentration for half-maximal inhibition (IC50) is 14500 nM.

For the compound `CCCCCCCOC(=O)CCCCCCCOC(Cn1ccnc1)c1ccc(Cl)cc1Cl` (stereo unspecified), the IC50 came to 10 nM.

Consider `COC(=O)CCCCCCCOC(Cn1cncn1)c1ccc(Cl)c(Cl)c1` (stereo unspecified), for which the IC50 came to 930 nM.

In the case of `COC(=O)CCCCCCCOC(Cn1cncn1)c1ccc(-c2ccccc2)cc1` (stereo unspecified), the IC50 was 54300 nM.

`COC(=O)CCCCCCCOC(Cn1cncn1)c1ccc(OC)cc1` (stereo unspecified): the IC50 was found to be 2600 nM.
